Test results as given in patent US6693216B2, “Calcium double salts” (Nutrinova Nutrition Specialties & Food Ingredients GmbH, priority 2000, dated 2004).
Where two headings read alike, the source gives them in different places.

Assays:
Conditions in all cases: Part II, 1 g/l in apple juice pH 4.5, 25° C.
Lactic acid bacteria = system: Lactic acid bacteria
Clostridia = system: Clostridia
Bacilli = system: Bacilli
Thermophilic bacilli = system: Thermophilic bacilli
Acetic acid bacteria = system: Acetic acid bacteria
Yeasts = system: Yeasts
Molds I = system: Molds I
Molds II = system: Molds II
Gram-negative bacteria = system: Gram-negative bacteria
Gram-positive bacteria = system: Gram-positive bacteria
[1] = 1 day after inoculation (2.7 × 10^4)
[2] = 3 days after inoculation (2.7 × 10^4)
[3] = 7 days after inoculation (2.7 × 10^4)
[4] = 14 days after inoculation (2.7 × 10^4)
[5] = 1 day after inoculation (3.3 × 10^4)
[6] = 3 days after inoculation (3.3 × 10^4)
[7] = 7 days after inoculation (3.3 × 10^4)
[8] = 14 days after inoculation (3.3 × 10^4)
[9] = 1 day after inoculation (1.3 × 10^4)
[10] = 3 days after inoculation (1.3 × 10^4)
[11] = 7 days after inoculation (1.3 × 10^4)
[12] = 14 days after inoculation (1.3 × 10^4)
[13] = 1 day after inoculation (2.8 × 10^4)
[14] = 3 days after inoculation (2.8 × 10^4)
[15] = 7 days after inoculation (2.8 × 10^4)
[16] = 14 days after inoculation (2.8 × 10^4)
[17] = 1 day after inoculation (2.6 × 10^4)
[18] = 3 days after inoculation (2.6 × 10^4)
[19] = 7 days after inoculation (2.6 × 10^4)
[20] = 14 days after inoculation (2.6 × 10^4)
[21] = 1 day after inoculation (2.2 × 10^4)
[22] = 3 days after inoculation (2.2 × 10^4)
[23] = 7 days after inoculation (2.2 × 10^4)
[24] = 14 days after inoculation (2.2 × 10^4)
[25] = 1 day after inoculation (2.5 × 10^4)
[26] = 3 days after inoculation (2.5 × 10^4)
[27] = 7 days after inoculation (2.5 × 10^4)
[28] = 14 days after inoculation (2.5 × 10^4)
[29] = 1 day after inoculation (2.1 × 10^4)
[30] = 3 days after inoculation (2.1 × 10^4)
[31] = 7 days after inoculation (2.1 × 10^4)
[32] = 14 days after inoculation (2.1 × 10^4)

| Compound | Number of surviving microorganisms per g of contaminated sample, Lactic acid bacteria (Lactic acid bacteria; [1]) | Number of surviving microorganisms per g of contaminated sample, Lactic acid bacteria (Lactic acid bacteria; [2]) | Number of surviving microorganisms per g of contaminated sample, Lactic acid bacteria (Lactic acid bacteria; [3]) | Number of surviving microorganisms per g of contaminated sample, Lactic acid bacteria (Lactic acid bacteria; [4]) | Number of surviving microorganisms per g of contaminated sample, Bacilli (Bacilli; [5]) | Number of surviving microorganisms per g of contaminated sample, Bacilli (Bacilli; [6]) | Number of surviving microorganisms per g of contaminated sample, Bacilli (Bacilli; [7]) | Number of surviving microorganisms per g of contaminated sample, Bacilli (Bacilli; [8]) | Number of surviving microorganisms per g of contaminated sample, Thermophilic bacilli (Thermophilic bacilli; [9]) | Number of surviving microorganisms per g of contaminated sample, Thermophilic bacilli (Thermophilic bacilli; [10]) | Number of surviving microorganisms per g of contaminated sample, Thermophilic bacilli (Thermophilic bacilli; [11]) [CFU/g] | Number of surviving microorganisms per g of contaminated sample, Thermophilic bacilli (Thermophilic bacilli; [12]) [CFU/g] | Number of surviving microorganisms per g of contaminated sample, Acetic acid bacteria (Acetic acid bacteria; [13]) | Number of surviving microorganisms per g of contaminated sample, Acetic acid bacteria (Acetic acid bacteria; [14]) | Number of surviving microorganisms per g of contaminated sample, Acetic acid bacteria (Acetic acid bacteria; [15]) | Number of surviving microorganisms per g of contaminated sample, Acetic acid bacteria (Acetic acid bacteria; [16]) | Number of surviving microorganisms per g of contaminated sample, Yeasts (Yeasts; [17]) | Number of surviving microorganisms per g of contaminated sample, Yeasts (Yeasts; [18]) | Number of surviving microorganisms per g of contaminated sample, Yeasts (Yeasts; [19]) | Number of surviving microorganisms per g of contaminated sample, Yeasts (Yeasts; [20]) | further results |
| --- | --- | --- | --- | --- | --- | --- | --- | --- | --- | --- | --- | --- | --- | --- | --- | --- | --- | --- | --- | --- | --- |
| Calcium Sorbate | 3.4 × 10^3 CFU/g | 2.0 × 10^3 CFU/g | <100 CFU/g | <10 CFU/g | 2.8 × 10^3 CFU/g | 1.8 × 10^3 CFU/g | 1.3 × 10^3 CFU/g | 1.2 × 10^3 CFU/g | 1.4 × 10^3 CFU/g | 5.0 × 10^2 CFU/g | <10 | <10 | 1.5 × 10^4 CFU/g | 1.4 × 10^4 CFU/g | 2.0 × 10^4 CFU/g | 1.3 × 10^5 CFU/g | 2.3 × 10^4 CFU/g | 1.0 × 10^4 CFU/g | <100 CFU/g | <10 CFU/g | Number of surviving microorganisms per g of contaminated sample, Clostridia (Clostridia; 1 day after inoculation (2.9 × 10^4)): 2.2 × 10^3 CFU/g; Number of surviving microorganisms per g of contaminated sample, Clostridia (Clostridia; 3 days after inoculation (2.9 × 10^4)): <100 CFU/g; Number of surviving microorganisms per g of contaminated sample, Clostridia (Clostridia; 7 days after inoculation (2.9 × 10^4)): <10 CFU/g; Number of surviving microorganisms per g of contaminated sample, Clostridia (Clostridia; 14 days after inoculation (2.9 × 10^4)): <10 CFU/g; Number of surviving microorganisms per g of contaminated sample, Molds I (Molds I; [21]): 3.9 × 10^3 CFU/g; Number of surviving microorganisms per g of contaminated sample, Molds I (Molds I; [22]): <100 CFU/g; Number of surviving microorganisms per g of contaminated sample, Molds I (Molds I; [23]): <10 CFU/g; Number of surviving microorganisms per g of contaminated sample, Molds I (Molds I; [24]): <10 CFU/g; Number of surviving microorganisms per g of contaminated sample, Molds II (Molds II; [25]): 6.5 × 10^3 CFU/g; Number of surviving microorganisms per g of contaminated sample, Molds II (Molds II; [26]): <100 CFU/g; Number of surviving microorganisms per g of contaminated sample, Molds II (Molds II; [27]): <10 CFU/g; Number of surviving microorganisms per g of contaminated sample, Molds II (Molds II; [28]): <10 CFU/g; Number of surviving microorganisms per g of contaminated sample, Gram-negative bacteria (Gram-negative bacteria; [1]): 1.7 × 10^4 CFU/g; Number of surviving microorganisms per g of contaminated sample, Gram-negative bacteria (Gram-negative bacteria; [2]): 1.0 × 10^4 CFU/g; Number of surviving microorganisms per g of contaminated sample, Gram-negative bacteria (Gram-negative bacteria; [3]): 1.9 × 10^3 CFU/g; Number of surviving microorganisms per g of contaminated sample, Gram-negative bacteria (Gram-negative bacteria; [4]): 2.7 × 10^3 CFU/g; Number of surviving microorganisms per g of contaminated sample, Gram-positive bacteria (Gram-positive bacteria; [29]): 2.1 × 10^4 CFU/g; Number of surviving microorganisms per g of contaminated sample, Gram-positive bacteria (Gram-positive bacteria; [30]): 6.4 × 10^3 CFU/g; Number of surviving microorganisms per g of contaminated sample, Gram-positive bacteria (Gram-positive bacteria; [31]): <10 CFU/g; Number of surviving microorganisms per g of contaminated sample, Gram-positive bacteria (Gram-positive bacteria; [32]): <10 CFU/g |
| CC(=O)[O-].CC(=O)[O-].[Ca+2] [Calcium Acetate] | 5.6 × 10^5 CFU/g | >3.0 × 10^6 CFU/g | >3.0 × 10^6 CFU/g | 2.4 × 10^4 CFU/g | 1.6 × 10^3 CFU/g | 1.0 × 10^3 CFU/g | 1.8 × 10^3 CFU/g | 1.8 × 10^3 CFU/g | 2.1 × 10^3 CFU/g | 6.0 × 10^2 CFU/g | <10 | <10 | 8.4 × 10^5 CFU/g | >3.0 × 10^6 CFU/g | >3.0 × 10^6 CFU/g | 1.5 × 10^6 CFU/g | 1.3 × 10^6 CFU/g | 2.5 × 10^6 CFU/g | >3.0 × 10^6 CFU/g | >3.0 × 10^6 CFU/g | Number of surviving microorganisms per g of contaminated sample, Molds I (Molds I; [21]): 1.1 × 10^4 CFU/g; Number of surviving microorganisms per g of contaminated sample, Molds I (Molds I; [22]): 2.2 × 10^3 CFU/g; Number of surviving microorganisms per g of contaminated sample, Molds I (Molds I; [23]): 7.6 × 10^3 CFU/g; Number of surviving microorganisms per g of contaminated sample, Molds I (Molds I; [24]): 4.5 × 10^4 CFU/g; Number of surviving microorganisms per g of contaminated sample, Molds II (Molds II; [25]): 1.5 × 10^4 CFU/g; Number of surviving microorganisms per g of contaminated sample, Molds II (Molds II; [26]): 1.2 × 10^4 CFU/g; Number of surviving microorganisms per g of contaminated sample, Molds II (Molds II; [27]): >1.0 × 10^5 CFU/g; Number of surviving microorganisms per g of contaminated sample, Molds II (Molds II; [28]): 3.5 × 10^4 CFU/g; Number of surviving microorganisms per g of contaminated sample, Gram-negative bacteria (Gram-negative bacteria; [1]): 1.7 × 10^4 CFU/g; Number of surviving microorganisms per g of contaminated sample, Gram-negative bacteria (Gram-negative bacteria; [2]): 1.3 × 10^4 CFU/g; Number of surviving microorganisms per g of contaminated sample, Gram-negative bacteria (Gram-negative bacteria; [3]): 2.2 × 10^3 CFU/g; Number of surviving microorganisms per g of contaminated sample, Gram-negative bacteria (Gram-negative bacteria; [4]): <100 CFU/g; Number of surviving microorganisms per g of contaminated sample, Gram-positive bacteria (Gram-positive bacteria; [29]): 1.1 × 10^5 CFU/g; Number of surviving microorganisms per g of contaminated sample, Gram-positive bacteria (Gram-positive bacteria; [30]): 9.0 × 10^4 CFU/g; Number of surviving microorganisms per g of contaminated sample, Gram-positive bacteria (Gram-positive bacteria; [31]): 6.7 × 10^3 CFU/g; Number of surviving microorganisms per g of contaminated sample, Gram-positive bacteria (Gram-positive bacteria; [32]): 5.9 × 10^3 CFU/g |
